We go through 25 compounds from ChEMBL document CHEMBL1131565, “Aminopyrimidines with high affinity for both serotonin and dopamine receptors” (J Med Chem, 1998).

In test [1] the target is T1, 5-hydroxytryptamine receptor 1A (Rattus norvegicus, UniProt P19327).
T1 sequence (P19327 whole entry): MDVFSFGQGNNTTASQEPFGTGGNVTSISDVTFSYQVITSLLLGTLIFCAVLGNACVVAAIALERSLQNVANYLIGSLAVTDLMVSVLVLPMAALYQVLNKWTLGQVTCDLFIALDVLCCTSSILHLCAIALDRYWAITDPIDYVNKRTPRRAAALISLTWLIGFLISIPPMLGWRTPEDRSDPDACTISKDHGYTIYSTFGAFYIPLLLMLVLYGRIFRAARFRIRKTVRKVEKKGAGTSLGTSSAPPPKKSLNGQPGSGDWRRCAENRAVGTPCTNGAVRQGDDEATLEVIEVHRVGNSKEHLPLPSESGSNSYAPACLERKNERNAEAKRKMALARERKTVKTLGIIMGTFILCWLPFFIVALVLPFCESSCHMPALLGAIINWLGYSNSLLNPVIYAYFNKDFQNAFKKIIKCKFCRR
Nature of the test: The binding affinity by measuring its ability to displace [3H]8-OH-DPAT radioligand in 5-hydroxytryptamine 1A receptor on rat hippocampal preparation. The class given is tissue-based, Hippocampus.

A further test concerns the target D(3) dopamine receptor (Homo sapiens, UniProt P35462). Kind of test: biochemical.
Test [2] concerns the target T2, D(2) dopamine receptor (Homo sapiens, UniProt P14416). Nature of the test: Percentage intrinsic activity measured at DA D2 receptor by measuring its ability to […] [3H]-thymidine uptake in CHO-K1 cells transfected with the Dopamine receptor D2. The class given is cell-based.
The test system of test [3] is Rattus norvegicus. Nature of the test: In vivo DA d2 activity determined by measuring effects on DA synthesis by observing the changes in accumulation of (DOPA) after administration of a 10 mg/kg ip. The class given is functional. As to conditions: route intraperitoneal.
Test [4] has as its target T2, D(2) dopamine receptor. Nature of the test: biochemical.
Description: Binding affinity determined by measuring its ability to displace [3H]N-0437 radioligand in CHO-K1 cells on Cloned Human Dopamine receptor D2
For test [5], the target named is 5-hydroxytryptamine receptor 1A (Rattus norvegicus) (UniProt P19327). Nature of the test: Intrinsic agonist activity at 5-HT1A receptors was measured in vivo by measuring changes in 5-HT levels after administration of compound by observing accumulation of the 5-HT […] 5-hydroxytryptophan (5-HTP) after administration of a 10 mg/k g ip.
Test [6] concerns the target T2, D(2) dopamine receptor. Kind of test: The in vitro intrinsic activity was measured at DA D2 receptor by measuring its ability to increase [3H]thymidine uptake in CHO-K1 cells transfected with the Dopamine receptor D2. The class given is cell-based.
Test [7] relates to Rattus norvegicus. Kind of test: In vivo DA D2 activity determined by measuring effects on DA synthesis by observing the changes in accumulation of (DOPA) after administration of a 10 mg/kg ip. As to conditions: route intraperitoneal. The class given is functional.
The test system of test [8] is Rattus norvegicus. Nature of the test: The % decrease of rat striatal dopamine overflow at the dose of 10 mg/kg through ip. The class given is functional.
In test [9] the test system is Rattus norvegicus. Kind of test: The inhibited exploratory locomotor activity of compound in rat after oral administration. The class given is functional.
The subject of test [10] is Rattus norvegicus. Nature of the test: The % decrease of rat striatal 5-HIAA overflow at the dose of 10 mg/kg through ip. The class given is functional.
Test [11] in a line: The inhibition of Sidman avoidance responding of compound in squirrel monkeys after oral administration.
A further test deals with Mus musculus. Kind of test: The inhibited exploratory locomotor activity of compound in mice after ip administration. The class given is functional.

D(3) dopamine receptor, sequence (P35462 whole entry): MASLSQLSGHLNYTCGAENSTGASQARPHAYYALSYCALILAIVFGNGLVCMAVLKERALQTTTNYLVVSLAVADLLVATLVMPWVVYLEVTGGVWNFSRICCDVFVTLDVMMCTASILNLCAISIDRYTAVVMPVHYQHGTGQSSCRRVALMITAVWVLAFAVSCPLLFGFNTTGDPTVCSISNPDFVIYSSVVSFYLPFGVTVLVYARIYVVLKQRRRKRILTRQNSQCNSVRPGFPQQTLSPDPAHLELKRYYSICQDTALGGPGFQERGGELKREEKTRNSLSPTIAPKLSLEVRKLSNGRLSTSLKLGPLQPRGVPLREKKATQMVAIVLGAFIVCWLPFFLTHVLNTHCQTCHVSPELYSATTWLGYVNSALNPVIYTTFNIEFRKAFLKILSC
T2 sequence (P14416 whole entry): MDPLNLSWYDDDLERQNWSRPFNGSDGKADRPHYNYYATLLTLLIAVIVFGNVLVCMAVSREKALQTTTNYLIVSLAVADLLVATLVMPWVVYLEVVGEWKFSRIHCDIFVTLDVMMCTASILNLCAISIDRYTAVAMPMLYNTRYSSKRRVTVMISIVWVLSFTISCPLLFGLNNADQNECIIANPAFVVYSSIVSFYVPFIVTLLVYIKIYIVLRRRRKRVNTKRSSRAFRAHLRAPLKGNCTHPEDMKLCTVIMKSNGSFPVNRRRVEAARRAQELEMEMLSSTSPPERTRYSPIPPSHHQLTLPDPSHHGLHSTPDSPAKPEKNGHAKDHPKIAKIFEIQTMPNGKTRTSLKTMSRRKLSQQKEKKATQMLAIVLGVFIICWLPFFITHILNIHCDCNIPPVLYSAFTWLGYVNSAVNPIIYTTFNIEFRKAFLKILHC
Description for D(3) dopamine receptor: Binding affinity determined by measuring displacement of [3H]spiperone from cloned Human Dopamine receptor D3 in CHO-K1 cells

For orientation: Ki means the equilibrium dissociation constant of an inhibitor or competing ligand from its target. The low end stands for tighter binding, the high end for weaker binding. Regarding `c1ccc(N2CCN(CC[C@H]3CC[C@H](Nc4ncccn4)CC3)CC2)nc1`, the figures for the inhibitory constant (Ki) (in [1]; on D(3) dopamine receptor) were 2.2 nM and 26 nM, respectively. Besides, at D(2) dopamine receptor [2], the Intrinsic activity amounted to 41%. Also, the Control in the test on Rattus norvegicus [3] was found to be 159%.
Regarding `c1cnc(N[C@H]2CC[C@H](CCN3CCN(c4ncccn4)CC3)CC2)nc1`, the Ki stood at 8.6 nM in [1], 240 nM at D(2) dopamine receptor [4] and 590 nM at D(3) dopamine receptor.
As to `CCCN(CCC)CC[C@H]1CC[C@H](Nc2ncccn2)CC1`, the Ki was 2400 nM on D(2) dopamine receptor [4] and 800 nM at D(3) dopamine receptor.
As to `c1cnc(N[C@H]2CC[C@H](CCN3CCc4ccccc4C3)CC2)nc1`, the Ki in test [1] is 44 nM; at D(2) dopamine receptor [4] it was 110 nM; on D(3) dopamine receptor, 40 nM.
The like results for `c1cnc(N[C@H]2CC[C@H](CCN3CCN(c4cccnc4)CC3)CC2)nc1` were, in that order, 9.5 nM, 25 nM and 4.7 nM.
What is called IC50 is the concentration that gives 50% inhibition. A lower IC50 goes with higher potency. Consider `Fc1ccc(N2CCN(CC[C@H]3CC[C@H](Nc4ncccn4)CC3)CC2)cc1`, for which the Ki in [1] was 4.5 nM; on D(2) dopamine receptor [4] it was 8.5 nM; at D(3) dopamine receptor, 48 nM. Moreover, the Control in test [5] came out at 143%; in the test on Rattus norvegicus [3], 142%. Besides, the IC50 against D(2) dopamine receptor [6] was determined as 79 nM. Also, at D(2) dopamine receptor [2], the Intrinsic activity turned out to be 5%.
On to `C1=C(c2ccccc2)CCN(CC[C@H]2CC[C@H](Nc3ncccn3)CC2)C1`, for which the Ki in test [1] was determined as 3.9 nM; on D(2) dopamine receptor [4] it was 4.7 nM; on D(3) dopamine receptor, 3.7 nM.
For `CN(CCc1ccccc1)CC[C@H]1CC[C@H](Nc2ncccn2)CC1`, the Ki is 91 nM in [1] and 39 nM at D(2) dopamine receptor [4].
Take `CN(c1ncccn1)[C@H]1CC[C@H](CCN2CCN(c3ccccc3)CC2)CC1`: the values for the Ki (in test [1]; at D(2) dopamine receptor [4]; at D(3) dopamine receptor) were 4.7 nM, 4.8 nM and 24 nM, respectively.
In turn, `O=C(N[C@H]1CC[C@H](CCN2CCN(c3ccccc3)CC2)CC1)c1cccs1` returned a Ki in test [1] of 57 nM.
For the compound `c1ccc(N2CCN(C[C@H]3CC[C@H](Nc4ncccn4)CC3)CC2)cc1`, the Ki was 41 nM in test [1], 5.7 nM on D(2) dopamine receptor [4] and 89 nM on D(3) dopamine receptor.
The like results for `COc1ccc(N2CCN(CC[C@H]3CC[C@H](Nc4ncccn4)CC3)CC2)cc1` were, in that order, 160 nM, 390 nM and 52 nM.
On to `COc1ccccc1N1CCN(CC[C@H]2CC[C@H](Nc3ncccn3)CC2)CC1`, for which the values for the Ki (in [1]; on D(2) dopamine receptor [4]; on D(3) dopamine receptor) were 0.5 nM, 3 nM and 11 nM, respectively. The Control in test [5] turned out to be 128%; in the test with Rattus norvegicus [7], 173%. Also, the IC50 at D(2) dopamine receptor [6] is 9.9 nM. Further, on D(2) dopamine receptor [2], the Intrinsic activity amounted to 8%.
`c1ccc(N2CCN(C3CCC(Nc4ncccn4)CC3)CC2)cc1` (stereo in doubt; 19): the Ki in test [1] was 470 nM; on D(2) dopamine receptor [4], 160 nM; at D(3) dopamine receptor it was 550 nM.
Consider `c1cnc(N[C@H]2CC[C@H](CCN3CCN(c4nccs4)CC3)CC2)nc1`, for which the Ki in [1] stood at 10 nM; on D(2) dopamine receptor [4] it was 46 nM.
In the case of `c1cnc(N[C@H]2CC[C@H](CCN3CCN(c4ccncc4)CC3)CC2)nc1`, the Ki in test [1] was 730 nM; at D(2) dopamine receptor [4], 4800 nM; at D(3) dopamine receptor, 2300 nM.
The like results for `c1ccc(N2CCN(CC[C@H]3CC[C@H](Nc4ncnc5ccccc45)CC3)CC2)cc1` were, in that order, 74 nM, 3.2 nM and 0.02 nM.
`O=C(N[C@H]1CC[C@H](CCN2CCN(c3ccccc3)CC2)CC1)C1CCCCC1` came in with a Ki in test [1] of 5300 nM.
`c1cnc(N[C@H]2CC[C@H](CCN3CCN(c4cnccn4)CC3)CC2)nc1`: the values for the Ki (in test [1]; on D(2) dopamine receptor [4]; at D(3) dopamine receptor) were 29 nM, 180 nM and 210 nM, respectively.
With `FC(F)(F)c1cccc(N2CCN(CC[C@H]3CC[C@H](Nc4ncccn4)CC3)CC2)c1`, the Ki in [1] was 13 nM; at D(2) dopamine receptor [4] it was 6 nM; on D(3) dopamine receptor, 32 nM.
The like results for `c1ccc(N2CCN(CCC[C@H]3CC[C@H](Nc4ncccn4)CC3)CC2)cc1` were, in that order, 16 nM, 7.4 nM and 54 nM.
Usually ED50 stands for the dose at which the effect has come halfway, by size or by number of responders. A lower ED50 goes with greater potency. What is called EC50 is the midpoint of the concentration-response curve. A higher EC50 goes with weaker potency. In the case of `c1ccc(N2CCN(CC[C@H]3CC[C@H](Nc4ncccn4)CC3)CC2)cc1`, the Decrease is recorded as 50% in the test on Rattus norvegicus [8] and 42% in the test with Rattus norvegicus [10]. The Ki in test [1] amounted to 3.5 nM; on D(2) dopamine receptor [4], 5.2 nM; at D(3) dopamine receptor, 13.7 nM. Besides, the ED50 with Rattus norvegicus [9] was 4.6 mg/kg; in test [11], 0.28 mg/kg; in the test with Mus musculus, 0.4 mg/kg. In the test with Rattus norvegicus [7], this compound displayed a Control of 67%. Moreover, the EC50 at D(2) dopamine receptor [6] came to 29 nM. On D(2) dopamine receptor [2], this compound registered an Intrinsic activity of 60%.
For `Clc1cccc(N2CCN(CC[C@H]3CC[C@H](Nc4ncccn4)CC3)CC2)c1Cl`, the figures for the Ki (in test [1]; on D(2) dopamine receptor [4]; on D(3) dopamine receptor) were 76 nM, 11 nM and 5 nM, respectively.
In turn, `c1ccc(N2CCN(CC[C@H]3CC[C@@H](Nc4ncccn4)CC3)CC2)cc1` returned an inhibition constant (Ki) on D(3) dopamine receptor of 29 nM.
Turning to `c1ccc(N2CCN(C3CCC(Nc4ncccn4)CC3)CC2)cc1` (stereo in doubt; 20), the values for the Ki (in test [1]; at D(2) dopamine receptor [4]; at D(3) dopamine receptor) were 83 nM, 320 nM and 610 nM, respectively.
